Source: patent publication US20180135134A1, “TARGETED SELECTION OF PATIENTS FOR TREATMENT WITH CORTISTATIN DERIVATIVES” (President and Fellows of Harvard College, priority 2015, published 2018)

Experiments:
[1] = tested on: megakaryocytic and erythroleukemia cell lines; experiment: Comparison of sensitivity of megakaryocytic and erythroleukemia cell lines; conditions: K562 and HEL compared to MEG-01 and SET-2 (BCR-Abl or JAK2V617F)
ARH-77 = experiment: Cellular proliferation assay (CellTiter-Glo); conditions: Homo sapiens
Procedure: (§1) All suspension cells were plated (96-well) in triplicate at 5,000-30,000 cells per well for testing (n=3). Viable cell number was estimated after 3, 7 and 10 days by counting viable cells from one vehicle well, generating a cell dilution series, transferring 20 ml per well in duplicate to a 384-well plate, and performing a linear regression to CellTiter-Glo (Promega) response (SPECTRAmax M3, Molecular Devices). Cells from all wells were also fourfold diluted in media and transferred in duplicate for CellTiter-Glo measurement. On days 3 and 7, an equal volume for all wells was split-back with fresh media and compound, such that the resulting cell density for the vehicle well matched the initial seeding density. For days 7 and 10, estimated cell number represents the split-adjusted theoretical cell number. […] For growth assays with inhibitors, n=3 for each concentration with two independent experiments.

[2] = tested on: RUNX1 target gene signatures; experiment: Gene expression and gene set enrichment analysis (GSEA) in MOLM-14 cells; type: cell-based, human; conditions: 3 h 25 nM CA
Text: Kasumi-1 AML cells contain the RUNX1-RUNX1T1 fusion. A gene set was obtained that measured the genes in Kasumi-1 cells that increase in expression upon knockdown of RUNX1-RUNX1T1 (Ben-Ami, O. et al. Cell Reports 4, 1131-1143 (2013)). Using gene set enrichment analysis (Subramanian, A. et. al. Proc. Natl Acad. Sci. USA 102, 15545-15550 (2005)), this gene set, together with the Broad Molecular Signatures database (C2) was compared to genes differentially expressed in MOLM-14 cells upon treatment with 25 nM cortistatin A for 3 hrs (FIG. 2).
Leukemia cells were plated (12-well) in triplicate at 500,000-800,000 cells per ml and incubated in the presence of vehicle (0.1% DMSO) or CA (25 nM 3 h for K562, MOLM-14 and MV4;11; 10 nM 24 h for MOLM-14; 25 nM 4 h for SET-2, n=3 for each cell line). Cells were then washed twice with cold PBS, and snap frozen. RNA was isolated (RNeasy Plus Microkit, Qiagen or TRIzol, Life Technologies), processed, and, for K562, MOLM-14 and MV4;11, hybridized to the Human U133 Plus 2.0 microarray (Affymetrix). Microarrays were processed with Bioconductor packages affyQCReport for quality control and affy for background correction, summarization, and normalization using rma. Probe sets present in at least 1 sample (based on affy mas5call) and for which the interquartile range was >log2(1.2) were retained for further analysis. The limma Bioconductor package was used for differential expression analysis of CA-treated versus DMSO control samples (Benjamini-Hochberg adjusted P<0.05). SET-2 and HCT 116 gene expression was measured by RNA-seq. SET-2 RNA-seq libraries were prepared and processed using the Ion Torrent workflow. Reads were aligned in two passes, first with rnaStar (v.2.3.0e) then with BWA (v.0.7.5a) for remaining unmapped reads, both using default parameters. Mapped reads were merged and counted using HTSeq (v.0.5.3p3) with -s yes -m intersection-strict. The Bioconductor package DESeq was used for DE analysis (FDR<0.05 and twofold change) and normalization. HCT116 cells were grown to approximately 80% confluence and were treated with either 100 nM CA or DMSO for 3 h (n=3). Cells were then washed twice with cold PBS and scraped into TRIzol reagent (Life Technologies). After collecting the RNA, it was further purified using an RNeasy mini kit (Qiagen) with an on-column DNase I digestion. Libraries for Illumina sequencing were generated via the Illumina TruSEQ stranded mRNA prep kit. Samples were run in a single lane on an Illumina HiSEQ 2000 sequencer with a single read flow cell using 1×50-bp reads and a 6-cycle index read. Reads were mapped to the hgl9 reference genome using Tophat2 v.2.0.6 with custom settings including the setting of—library-type fr—firstrand to appropriately account for the stranded nature of the protocol. HTSeq v.0.6.1 was used to obtain read counts over annotated genes and differentially expressed genes were called by DESeq v.1.10.1 with a padj value of less than 0.01. Counts were normalized for GSEA using the limma voom function. Expression data for the I-BET151 comparison were downloaded from ArrayExpress (https://www.ebi.ac.uk/arrayexpress, accession E-MTAB-774) and processed files used as is. Gene lists were submitted to the DAVID web server (http://david.abcc.ncifcrf.gov) for functional annotation. GSEA version 2.09 was carried out using signal-to-noise on natural values as the metric. Signatures included curated gene sets (C2, v.3) downloaded from the Broad's MSigDB as well as signatures curated from in-house and published data sets.

GRANTA 519 = experiment: Cellular proliferation assay (CellTiter-Glo); conditions: Homo sapiens
Procedure: (§2) All suspension cells were plated (96-well) in triplicate at 5,000-30,000 cells per well for testing (n=3). Viable cell number was estimated after 3, 7 and 10 days by counting viable cells from one vehicle well, generating a cell dilution series, transferring 20 ml per well in duplicate to a 384-well plate, and performing a linear regression to CellTiter-Glo (Promega) response (SPECTRAmax M3, Molecular Devices). Cells from all wells were also fourfold diluted in media and transferred in duplicate for CellTiter-Glo measurement. On days 3 and 7, an equal volume for all wells was split-back with fresh media and compound, such that the resulting cell density for the vehicle well matched the initial seeding density. For days 7 and 10, estimated cell number represents the split-adjusted theoretical cell number. HCT116 were plated (96-well) in triplicate at 250 cells per well. Cells were incubated in the presence of vehicle, 1 μM paclitaxel, or compound. On day 7, CellTiter-Blue (Promega) response was measured and values were normalized to vehicle (100% growth) and paclitaxel (0% growth). For growth assays with inhibitors, n=3 for each concentration with two independent experiments.

NB4 = experiment: Cellular proliferation assay (CellTiter-Glo); conditions: Homo sapiens, NB-4
Procedure: as §2

MEG-01 = experiment: Cellular proliferation assay (CellTiter-Glo); conditions: Homo sapiens
Procedure: as §1

A498 = experiment: Soft agar growth assay (Alamar Blue); conditions: clear cell renal cell carcinoma, Loss of function VHL mutation (VHL negative), 100 nM cortistatin A
Procedure: (§3) For the 62 cell lines 96 well suspension cell culture plates were prepared. 100 μL of the soft agar bottom layer (0.6% final concentration in complete medium) was poured and left to solidify. 50 μL of the soft agar top layer (0.4% final concentration) containing the corresponding cells and cell number were then added on top, solidified and incubated at 37° C., 10% CO2. After the soft agar had solidified, the test items were added at indicated final concentrations into the inner wells of the plate. Subsequently, the assay was incubated in cell culture incubators for 8 to 14 days. Finally, the assay was developed using Alamar Blue and upon 1-5 h of incubation at 37° C. fluorescence intensity was determined (excitation: 560 nm; emission: 590 nm). As low control, cells were treated with 1E-05M Staurosporine (6fold values). As high control, cells were treated with 0.1% DMSO (solvent control, 6 fold values).
(§4) Raw data were converted into percent soft agar growth relative to high controls (solvent 0.1% DMSO) and low controls (1E-05M Staurosporine), which were set to 100% and 0%, respectively.

T47D = experiment: Soft agar growth assay (Alamar Blue); conditions: Breast cancer, ER-alpha positive, 100 nM cortistatin A
Procedure: as §3, §4

NCI-N87 = experiment: Soft agar growth assay (Alamar Blue); conditions: Gastric cancer, HER2 overexpression, 100 nM cortistatin A
Procedure: as §3, §4

HCC827 = experiment: Soft agar growth assay (Alamar Blue); conditions: Non small cell lung carcinoma, EGFR mutation, 100 nM cortistatin A
Procedure: as §3, §4

MKN-45 = experiment: Soft agar growth assay (Alamar Blue); conditions: Gastric cancer, MET amplification, 100 nM cortistatin A
Procedure: as §3, §4

MM1.S = experiment: Cellular proliferation assay (CellTiter-Glo); conditions: Homo sapiens
Procedure: as §2

U87MG = experiment: Soft agar growth assay (Alamar Blue); conditions: Glioma, Inactivating mutations in ETV1, FLL1 and SMC3, 100 nM cortistatin A
Procedure: as §3, §4

MOLM-14 = experiment: Cellular proliferation assay (CellTiter-Glo); conditions: Homo sapiens
Procedure: as §1

CDK8/Cyclin C = molecular target: T1, CDK8/Cyclin C (Homo sapiens, UniProt P49336); experiment: In vitro radiometric protein kinase assay (PanQinase); type: biochemical; conditions: FIG. 8
T1 construct: purchased ProQinase GmbH
Text: A radiometric protein kinase assay was used (PanQinase activity assay; performed by ProQinase GmbH) as described (Hutterer, C. et al. Antimicrob. Agents Chemother. 59, 2062-2071 (2015)).

UKE-1 = experiment: Cellular proliferation assay (CellTiter-Glo); conditions: Homo sapiens, UKE1
Procedure: as §1

[3] = tested on: megakaryocytic cell lines; experiment: Cellular proliferation assay, megakaryocytic cell lines; conditions: Homo sapiens
Procedure: as §1

T1 sequence (P49336 whole entry): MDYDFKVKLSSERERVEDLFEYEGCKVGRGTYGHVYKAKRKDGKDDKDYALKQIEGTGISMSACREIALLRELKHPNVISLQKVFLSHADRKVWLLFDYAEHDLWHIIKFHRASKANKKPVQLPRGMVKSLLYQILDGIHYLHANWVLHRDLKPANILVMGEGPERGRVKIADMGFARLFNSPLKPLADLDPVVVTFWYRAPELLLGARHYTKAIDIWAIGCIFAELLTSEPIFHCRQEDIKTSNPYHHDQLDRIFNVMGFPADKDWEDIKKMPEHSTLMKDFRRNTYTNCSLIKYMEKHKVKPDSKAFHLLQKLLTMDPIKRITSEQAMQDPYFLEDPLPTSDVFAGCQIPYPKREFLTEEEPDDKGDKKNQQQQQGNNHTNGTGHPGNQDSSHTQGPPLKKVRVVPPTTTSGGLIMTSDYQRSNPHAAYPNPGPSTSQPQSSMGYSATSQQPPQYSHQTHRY
T1 sequence (P24863 whole entry partner): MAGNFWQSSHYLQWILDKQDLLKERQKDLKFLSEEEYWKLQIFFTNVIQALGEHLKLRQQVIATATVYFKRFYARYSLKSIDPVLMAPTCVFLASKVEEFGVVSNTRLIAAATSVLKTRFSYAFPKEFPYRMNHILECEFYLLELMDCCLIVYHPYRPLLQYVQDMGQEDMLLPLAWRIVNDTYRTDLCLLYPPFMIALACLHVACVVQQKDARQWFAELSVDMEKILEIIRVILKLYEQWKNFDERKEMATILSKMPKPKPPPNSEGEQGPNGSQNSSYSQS

CN(C)[C@H]1C[C@@]23CC[C@@]4(O2)C(=CC[C@]2(C)[C@@H](c5ccc6ccncc6c5)CC[C@H]24)C=C3[C@@H](O)[C@@H]1O [Cortistatin A, cortistatin A]
difference in sensitivity between megakaryocytic and erythroleukemia cell lines with the same mutations [1]: more than 100 fold
GI50 (ARH-77): 16 nM
NES ([2]; signature: Downregulated by RUNX1-RUNX1T1 in CD34+ cord blood cells): 2.50
NES ([2]; signature: Downregulated by RUNX1 knockdown in Kasumi-1 cells): 2.21
NES ([2]; signature: Downregulated by RUNX1 knowndown in Jurkat cells): 2.00
NES ([2]; signature: Upregulated by C/EBPα in Burkitt lymphoma cells): 2.56
NES ([2]; signature: Upregulated by C/EBPα in K562 cells): 2.22
NES ([2]; signature: Upregulated by C/EBPα in KCL22 cells): 2.22
NES ([2]; signature: Upregulated by RUNX1-RUNX1T1 knockdown in Kasumi-1 cells): 2.78
GI50 (GRANTA 519): 400 nM
GI50 (NB4): > 1000 nM
GI50 (MEG-01; MEG-01): 9 nM
GI50 (MEG-01; MEG-01, 240 h): 9 nM
% growth rel. to vehicle (A498): 51%
% growth rel. to vehicle (T47D): 48%
% growth rel. to vehicle (NCI-N87): 26%
% growth rel. to vehicle (HCC827): 23%
% growth rel. to vehicle (MKN-45): 27%
GI50 (MM1.S): 5 nM
% growth rel. to vehicle (U87MG): 36%
GI50 (MOLM-14; MOLM-14): 5 nM
GI50 (MOLM-14; MOLM-14, 240 h): 5 nM
inhibition of CDK8/Cyclin C kinase activity (CDK8/Cyclin C): potently inhibits CDK8/Cyclin C
GI50 (UKE-1): 7 nM
GI50 [3]: < 10 nM
